The results in this text go back to patent US10391070B2, “Compositions and methods for treating neurological diseases or injury” (MUSC FOUNDATION FOR RESEARCH DEVELOPMENT, priority 2012, dated 2019).

The structures appear in SMILES notation. “And” between values parts separate entries of the source, which are not always exact repeats. Equal values may be shown once.

One data set concerns corneal kindled seizures. Description: Corneal kindled mouse model. The data set is classed as in vivo. Particulars: mice, 100 mg/kg i.p., 0.25 hrs. How it is done: Mouse studies were performed by NIH Anticonvulsant Screening Program at the National Institute of Neurological Disorders and Stroke (Stables and Kupferberg, 1997) according to the established NIH experimental procedures outlined below. Compounds were delivered into mice by i.p. injection at a dose of 100 mg/kg in sterile 5% DMSO, 95% Neobee (Josey et al., 2013). One of four methods for seizure induction was subsequently administered to mice at 0.25, 0.5, 1, 2 and 4 h after treatment with compound. (1) Subcutaneous PTZ seizure threshold test. PTZ was administered at a concentration of 85 mg/kg, into the loose fold of skin in the midline of the neck. […] (2) Maximal electroshock test. 60 Hz of 50 mA alternating current was delivered for 0.2 s by corneal electrodes. Mice were considered protected from seizures when the hindlimb tonic extensor was absent (White et al., 1995). (3) Minimal clonic seizure (6 Hz) test. 6 Hz of 32 mA or 44 mA alternating current was delivered for 3 s by corneal electrodes to elicit a psychomotor seizure. Mice were considered protected from seizures when the automatistic behaviors were absent (Barton et al., 2001). (4) Corneal kindled mouse model. […]

Data set [1] is described as follows: Chronic toxicity evaluation in mice (blood count and chemistry). In kind it is in vivo, mouse. Particulars: for blood count and chemistry parameters versus vehicle / weight loss, signs of pain or distress: mice, 50 mg/kg i.p. daily, three weeks. How it is done:
Adult (12 weeks of age) mice (Balb/cByJ, 17-20 g, Jackson Laboratory), were housed in temperature-controlled conditions under a light/dark photocycle with food and water supplied ad libitum. Mice were divided randomly into three groups. The first group (n=3) was injected i.p. with compound 2q at 50 mg/kg dissolved in sterile 5% DMSO, 95% Neobee (Spectrum Chemical) (Allen et al., 2006). The second group (n=3) was injected i.p. with compound 2j at 50 mg/kg dissolved in sterile 5% DMSO, 95% Neobee. The third, vehicle control group (n=2) was injected i.p. with an equivalent volume of sterile 5% DMSO, 95% Neobee. All animals were injected between 11:00 a.m. and 12:00 p.m. Animals were sacrificed by CO2 after three weeks of injections. Blood was collected by cardiac puncture and standard blood count and chemistry was evaluated by the MUSC/VA Veterinary Diagnostic Laboratory (Charleston, S.C.). All animal and treatment protocols were in compliance with the Guide for the Care and Use of Laboratory Animals as adopted and promulgated by the National Institutes of Health (Institute of Laboratory Animal Resources, 1996).
Preliminary in vivo toxicity was assessed for compounds 2q and 2j in mice. […] Adult mice were injected intraperitoneally (i.p.) daily. […] After three weeks of chronic, high dose injections, animals were sacrificed and standard blood count and chemistry analyses performed.

Data set [2] can be described thus: Presence in mouse brain by LC-MS. The data set is classed as in vivo. Particulars: mice, i.p. daily for three weeks, brain 2 hours after final injection. How it is done:
VK2 is synthesized in situ where it is needed. […] Utilizing small synthetic VK analog that can perform similarly to VK2 is of novelty for epileptic treatment. Mice were under I.P. daily injection of 2q for three weeks and their brains were harvested 2 hours after the final injection. The mouse brains were extracted with organic solvent. The presence and the level of 2q were determined using LC-MS techniques (FIG. 9). The presence of 2q was detected via mass spectrometry in the mice brain 2 hours after i.p. injections.

[3] abbreviates: mouse blood chemistry, 50 mg/kg, 3 wks i.p., individual animals 1-3.
Where [4] appears, read: mouse complete blood count, 50 mg/kg, 3 wks i.p., individual animals 1-3.

For `C#CCNC1=CC(=O)c2ccccc2C1=O` [Compound 2h, 2-(prop-2-yn-1-ylamino)naphthalene-1,4-dione], in the data set on corneal kindled seizures, the Avg seizure score is 3.75 and the “N/F (animals protected/animals tested)” value is given as 2/4.

Take `O=C1C=C(NCc2ccccc2)C(=O)c2ccccc21` [Compound 2j, 2-(benzylamino)naphthalene-1,4-dione]: in data set [1], the “blood count and chemistry parameters versus vehicle” value is reported as “consistent with those of the vehicle control group”; the “weight loss, signs of pain or distress” value is listed as “no weight loss or outward signs of pain or distress”.

Take `O=C1C=C(NCc2cccc(Cl)c2)C(=O)c2ccccc21` [Compound 2q, 2-((3-chlorobenzyl)amino)naphthalene-1,4-dione]: in data set [1], the “blood count and chemistry parameters versus vehicle” value is listed as “consistent with those of the vehicle control group”; the “weight loss, signs of pain or distress” value is on record as “no weight loss or outward signs of pain or distress”. In data set [1] (setting [3]), the ALP was 72 U/L and 80 U/L and 60 U/L; the ALT is 34 U/L and 28 U/L and 33 U/L; the AST was 89 U/L and 71 U/L and 78 U/L; the Albumin was 3 g/dL and 3.2 g/dL and 2.8 g/dL. Also, in data set [1] (setting [3]), the BUN is 19 mg/dL (2×) and 20 mg/dL; the Creatinine is 0.16 mg/dL and 0.23 mg/dL and 0.18 mg/dL; the Glucose is 195 mg/dL (2×) and 205 mg/dL; the “Total Bilirubin” value is 0.20 mg/dL. Moreover, in data set [1] (setting [3]), the “Total Protein” value is 5.2 g/dL and 5.3 g/dL and 4.9 g/dL. In data set [1] (setting [4]), the BA was 0.01 K/uL and 0.05 K/uL and 0.02 K/uL; the EO was 0.10 K/uL and 0.17 K/uL and 0.01 K/uL; the HCT is 51.1% and 53.2% and 51.3%; the Hb was 13.9 g/dL (2×) and 14.5 g/dL. Also, in data set [1] (setting [4]), the LY is 3.30 K/uL and 5.14 K/uL and 2.45 K/uL; the MCH was 14.8 pg (2×) and 15.3 pg; the MCHC was 27.2 g/dL and 27.3 g/dL and 27.1 g/dL; the MCV was 54.4 fL and 56.2 fL and 54.8 fL. Also, in data set [1] (setting [4]), the MO is 0.32 K/uL and 0.43 K/uL and 0.35 K/uL; the MPV is 4.5 fL and 4.6 fL and 4.4 fL; the NE was 5.55 K/uL and 3.03 K/uL and 3.78 K/uL; the PLT is 1139 K/uL and 946 K/uL and 1050 K/uL. Also, in data set [1] (setting [4]), the RBC was 9.39 M/uL and 9.46 M/uL and 9.37 M/uL; the RDW was 17.8% and 17.7% and 17.4%; the WBC was 9.28 K/uL and 8.82 K/uL and 6.62 K/uL. In addition, the “presence in brain (LC-MS)” value in data set [2] is “detected”.
